This is an account of results in ChEMBL document CHEMBL1909046, “DrugMatrix in vitro pharmacology data”.

Sequence of Cytochrome P450 2C9 (P11712 whole entry): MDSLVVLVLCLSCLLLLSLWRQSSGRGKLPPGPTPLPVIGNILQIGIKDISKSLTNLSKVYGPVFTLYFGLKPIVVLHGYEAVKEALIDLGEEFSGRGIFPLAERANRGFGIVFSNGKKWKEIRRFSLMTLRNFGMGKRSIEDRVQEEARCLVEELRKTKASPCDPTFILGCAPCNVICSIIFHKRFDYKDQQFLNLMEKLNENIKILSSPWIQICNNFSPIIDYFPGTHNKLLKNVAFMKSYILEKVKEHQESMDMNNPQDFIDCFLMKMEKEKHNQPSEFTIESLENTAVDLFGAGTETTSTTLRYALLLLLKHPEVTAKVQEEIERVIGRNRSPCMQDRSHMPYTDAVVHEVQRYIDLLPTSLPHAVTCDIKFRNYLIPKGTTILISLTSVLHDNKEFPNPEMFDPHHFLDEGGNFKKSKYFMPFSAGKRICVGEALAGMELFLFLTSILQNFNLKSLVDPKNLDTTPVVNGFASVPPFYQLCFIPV
Sequence of Cannabinoid receptor 1 (P21554 whole entry): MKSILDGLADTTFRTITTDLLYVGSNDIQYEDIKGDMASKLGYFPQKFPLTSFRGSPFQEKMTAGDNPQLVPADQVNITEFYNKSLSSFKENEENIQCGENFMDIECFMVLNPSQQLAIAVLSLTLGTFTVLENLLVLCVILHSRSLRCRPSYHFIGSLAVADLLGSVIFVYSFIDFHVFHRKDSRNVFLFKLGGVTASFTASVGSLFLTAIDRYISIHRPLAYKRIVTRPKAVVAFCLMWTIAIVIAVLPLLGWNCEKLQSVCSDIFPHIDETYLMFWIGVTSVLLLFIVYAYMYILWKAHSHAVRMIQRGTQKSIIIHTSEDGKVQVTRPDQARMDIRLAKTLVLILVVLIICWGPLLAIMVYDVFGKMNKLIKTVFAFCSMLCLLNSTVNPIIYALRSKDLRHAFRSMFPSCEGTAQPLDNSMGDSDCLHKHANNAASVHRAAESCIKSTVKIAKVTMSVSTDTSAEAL

The target of one series is Sodium-dependent noradrenaline transporter (Homo sapiens, UniProt P23975). The experiment in a line: DRUGMATRIX: Norepinephrine Transporter radioligand binding (ligand: [125I] RTI-55). Type of series: cell membranes, MDCK, Membrane. Conditions: mdck; Not Active = under 50% inhibition at 10 µM.
Sequence of Sodium-dependent noradrenaline transporter (P23975 whole entry): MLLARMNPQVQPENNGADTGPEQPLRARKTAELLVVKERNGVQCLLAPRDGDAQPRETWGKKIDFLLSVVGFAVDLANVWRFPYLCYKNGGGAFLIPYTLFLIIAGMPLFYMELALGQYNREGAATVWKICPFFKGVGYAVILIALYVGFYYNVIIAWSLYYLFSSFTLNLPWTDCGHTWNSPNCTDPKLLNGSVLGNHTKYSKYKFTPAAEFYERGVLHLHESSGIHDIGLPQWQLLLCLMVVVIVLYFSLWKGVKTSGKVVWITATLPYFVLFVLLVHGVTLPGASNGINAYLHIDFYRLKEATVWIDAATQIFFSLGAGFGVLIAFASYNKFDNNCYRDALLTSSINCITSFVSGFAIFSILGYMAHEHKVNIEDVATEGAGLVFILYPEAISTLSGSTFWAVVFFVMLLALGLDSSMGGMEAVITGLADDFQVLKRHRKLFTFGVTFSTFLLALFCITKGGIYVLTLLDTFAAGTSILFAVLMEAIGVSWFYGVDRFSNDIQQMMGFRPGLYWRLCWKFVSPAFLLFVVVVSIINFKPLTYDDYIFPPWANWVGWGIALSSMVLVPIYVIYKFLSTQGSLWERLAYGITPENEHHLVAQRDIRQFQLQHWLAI
Take `CC(=O)[C@@]1(O)CC[C@H]2[C@@H]3C[C@H](C)C4=CC(=O)C=C[C@]4(C)[C@@]3(F)[C@@H](O)C[C@@]21C` [FLUOROMETHOLONE]: the IC50 entry is on record as “Not Active”.

As for `C[C@]12CCC(=O)C=C1CC[C@@H]1[C@@H]2C(=O)C[C@@]2(C)[C@H]1CC[C@]2(O)C(=O)CO` [CORTISONE], the IC50 result was “Not Active”.

Tested on in a further series: not listed separately
The experiment in a line: DRUGMATRIX: Atrial Natriuretic Factor (ANF) radioligand binding (ligand: [125I] ANF (rat)). The format is cell membranes, Cavia porcellus, Dunkin-Hartley, Adrenal gland, Membrane. Conditions: Not Active = under 50% inhibition at 10 µM.
For `CC(=O)[C@@]1(O)CC[C@H]2[C@@H]3C[C@H](C)C4=CC(=O)C=C[C@]4(C)[C@@]3(F)[C@@H](O)C[C@@]21C` [FLUOROMETHOLONE], the IC50 entry was “Not Active” and the Ki result was “Not Active”.

On to `C[C@]12CCC(=O)C=C1CC[C@@H]1[C@@H]2C(=O)C[C@@]2(C)[C@H]1CC[C@]2(O)C(=O)CO` [CORTISONE], for which the IC50 result was “Not Active” and the Ki result was “Not Active”.

The target of another series is T1, Endothelin-1 receptor (Homo sapiens, UniProt P25101). Further: in other assays of this panel Not Active means under 50% inhibition at 10 µM.
T1 sequence (P25101 whole entry): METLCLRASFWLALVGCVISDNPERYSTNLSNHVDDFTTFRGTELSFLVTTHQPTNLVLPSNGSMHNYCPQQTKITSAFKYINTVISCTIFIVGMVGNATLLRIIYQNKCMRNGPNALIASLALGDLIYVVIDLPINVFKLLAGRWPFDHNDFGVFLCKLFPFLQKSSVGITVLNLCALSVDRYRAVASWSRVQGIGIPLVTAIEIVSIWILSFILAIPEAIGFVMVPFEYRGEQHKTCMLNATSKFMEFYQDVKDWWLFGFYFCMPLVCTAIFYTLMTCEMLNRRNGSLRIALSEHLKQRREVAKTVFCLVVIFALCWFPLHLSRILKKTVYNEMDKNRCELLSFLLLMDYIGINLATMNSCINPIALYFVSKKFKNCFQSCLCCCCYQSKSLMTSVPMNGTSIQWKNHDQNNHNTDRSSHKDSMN
The format is cell membranes, Membrane. Conditions: cho-k1.
Regarding `CC(=O)[C@@]1(O)CC[C@H]2[C@@H]3C[C@H](C)C4=CC(=O)C=C[C@]4(C)[C@@]3(F)[C@@H](O)C[C@@]21C` [FLUOROMETHOLONE], the IC50 result is on record as “Not Active”.

For the compound `C[C@]12CCC(=O)C=C1CC[C@@H]1[C@@H]2C(=O)C[C@@]2(C)[C@H]1CC[C@]2(O)C(=O)CO` [CORTISONE], the IC50 result is “Not Active”.

Tested on in another series: not listed separately
The experiment in a line: DRUGMATRIX: GABAA, Flunitrazepam, Central radioligand binding (ligand: [3H] Flunitrazepam). Type of series: cell membranes, Rattus norvegicus, Wistar, Brain, Membrane. Conditions: Not Active = under 50% inhibition at 10 µM.
In the case of `CC(=O)[C@@]1(O)CC[C@H]2[C@@H]3C[C@H](C)C4=CC(=O)C=C[C@]4(C)[C@@]3(F)[C@@H](O)C[C@@]21C` [FLUOROMETHOLONE], the IC50 result was “Not Active” and the Ki entry is “Not Active”.

In the case of `C[C@]12CCC(=O)C=C1CC[C@@H]1[C@@H]2C(=O)C[C@@]2(C)[C@H]1CC[C@]2(O)C(=O)CO` [CORTISONE], the IC50 entry is listed as “Not Active” and the Ki result was “Not Active”.

In another series the target is T2, Muscarinic acetylcholine receptor M2 (Homo sapiens, UniProt P08172). Further: in other assays of this panel Not Active means under 50% inhibition at 10 µM.
T2 sequence (P08172 whole entry): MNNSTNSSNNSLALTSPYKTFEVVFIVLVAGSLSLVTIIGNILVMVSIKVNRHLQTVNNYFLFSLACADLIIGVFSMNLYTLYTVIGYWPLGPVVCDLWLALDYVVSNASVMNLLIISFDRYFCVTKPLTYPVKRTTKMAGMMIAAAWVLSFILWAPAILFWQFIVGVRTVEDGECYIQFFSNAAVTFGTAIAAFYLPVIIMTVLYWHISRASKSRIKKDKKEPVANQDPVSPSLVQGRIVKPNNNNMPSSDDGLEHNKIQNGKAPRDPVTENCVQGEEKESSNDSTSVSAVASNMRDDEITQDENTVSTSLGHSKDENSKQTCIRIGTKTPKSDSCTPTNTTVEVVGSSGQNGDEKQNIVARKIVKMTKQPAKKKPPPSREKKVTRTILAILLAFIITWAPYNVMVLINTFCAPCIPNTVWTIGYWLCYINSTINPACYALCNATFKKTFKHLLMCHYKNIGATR
Type of series: cell membranes, CHO-K1, Membrane. Conditions: cho-k1.
On to `CC(=O)[C@@]1(O)CC[C@H]2[C@@H]3C[C@H](C)C4=CC(=O)C=C[C@]4(C)[C@@]3(F)[C@@H](O)C[C@@]21C` [FLUOROMETHOLONE], for which the IC50 entry is “Not Active”.

`C[C@]12CCC(=O)C=C1CC[C@@H]1[C@@H]2C(=O)C[C@@]2(C)[C@H]1CC[C@]2(O)C(=O)CO` [CORTISONE]: the IC50 entry is “Not Active”.

The next series concerns the target Cytochrome P450 2C9 (Homo sapiens, UniProt P11712). Conditions: bti-tn-5b1-4. Further: in other assays of this panel Not Active means under 50% inhibition at 10 µM.
`CC(=O)[C@@]1(O)CC[C@H]2[C@@H]3C[C@H](C)C4=CC(=O)C=C[C@]4(C)[C@@]3(F)[C@@H](O)C[C@@]21C` [FLUOROMETHOLONE]: the IC50 result was “Not Active” and the Ki result is “Not Active”.

On to `C[C@]12CCC(=O)C=C1CC[C@@H]1[C@@H]2C(=O)C[C@@]2(C)[C@H]1CC[C@]2(O)C(=O)CO` [CORTISONE], for which the IC50 result is recorded as “Not Active” and the Ki entry is “Not Active”.

The target in a further series is Beta-2 adrenergic receptor (Homo sapiens, UniProt P07550). Kind of series: DRUGMATRIX: Adrenergic beta2 radioligand binding (ligand: [3H] CGP-12177). The format is cell membranes, Membrane. Conditions: cho; Not Active = under 50% inhibition at 10 µM.
Sequence of Beta-2 adrenergic receptor (P07550 whole entry): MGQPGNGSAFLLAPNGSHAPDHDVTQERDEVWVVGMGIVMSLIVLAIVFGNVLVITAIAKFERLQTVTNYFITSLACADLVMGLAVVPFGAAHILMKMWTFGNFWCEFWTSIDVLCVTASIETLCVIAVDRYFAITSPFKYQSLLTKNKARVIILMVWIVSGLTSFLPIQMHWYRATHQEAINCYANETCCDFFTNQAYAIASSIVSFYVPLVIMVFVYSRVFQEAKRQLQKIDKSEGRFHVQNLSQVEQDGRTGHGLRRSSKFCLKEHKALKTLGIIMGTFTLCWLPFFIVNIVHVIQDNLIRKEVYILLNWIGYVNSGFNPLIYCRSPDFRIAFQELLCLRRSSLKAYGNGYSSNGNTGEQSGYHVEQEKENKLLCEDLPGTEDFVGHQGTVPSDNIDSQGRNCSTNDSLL
With `CC(=O)[C@@]1(O)CC[C@H]2[C@@H]3C[C@H](C)C4=CC(=O)C=C[C@]4(C)[C@@]3(F)[C@@H](O)C[C@@]21C` [FLUOROMETHOLONE], the IC50 result is recorded as “Not Active”.

`C[C@]12CCC(=O)C=C1CC[C@@H]1[C@@H]2C(=O)C[C@@]2(C)[C@H]1CC[C@]2(O)C(=O)CO` [CORTISONE]: the IC50 result is given as “Not Active”.

The next series deals with T3, 5-hydroxytryptamine receptor 1A (Rattus norvegicus, UniProt P19327).
T3 sequence (P19327 whole entry): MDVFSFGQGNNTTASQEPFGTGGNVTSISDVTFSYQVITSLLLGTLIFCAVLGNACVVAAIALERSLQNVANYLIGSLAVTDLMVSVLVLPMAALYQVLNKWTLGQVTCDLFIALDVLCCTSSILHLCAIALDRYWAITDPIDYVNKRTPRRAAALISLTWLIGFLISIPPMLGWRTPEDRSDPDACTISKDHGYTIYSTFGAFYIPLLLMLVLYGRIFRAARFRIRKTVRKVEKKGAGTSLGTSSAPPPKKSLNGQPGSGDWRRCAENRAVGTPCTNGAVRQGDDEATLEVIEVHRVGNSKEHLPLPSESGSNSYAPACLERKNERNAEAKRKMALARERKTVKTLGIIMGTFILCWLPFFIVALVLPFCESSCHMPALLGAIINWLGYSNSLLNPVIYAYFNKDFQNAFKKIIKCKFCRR
The format is cell membranes, CHO-K1, Membrane. Conditions: cho-k1.
In the case of `CC(=O)[C@@]1(O)CC[C@H]2[C@@H]3C[C@H](C)C4=CC(=O)C=C[C@]4(C)[C@@]3(F)[C@@H](O)C[C@@]21C` [FLUOROMETHOLONE], the IC50 entry is reported as “Not Active”.

For `C[C@]12CCC(=O)C=C1CC[C@@H]1[C@@H]2C(=O)C[C@@]2(C)[C@H]1CC[C@]2(O)C(=O)CO` [CORTISONE], the IC50 entry is reported as “Not Active”.

For the next series, the target named is Protein phosphatase 3 catalytic subunit alpha (Homo sapiens, UniProt Q08209). Details: species or system Escherichia coli.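 Further: inhibition of calcineurin (PP2B) enzyme activity, measured with DiFMUP as the substrate; in other assays of this panel Not Active means under 50% inhibition at 10 µM.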
Conditions: not given
`CC(=O)[C@@]1(O)CC[C@H]2[C@@H]3C[C@H](C)C4=CC(=O)C=C[C@]4(C)[C@@]3(F)[C@@H](O)C[C@@]21C` [FLUOROMETHOLONE]: the IC50 entry is on record as “Not Active”.

As for `C[C@]12CCC(=O)C=C1CC[C@@H]1[C@@H]2C(=O)C[C@@]2(C)[C@H]1CC[C@]2(O)C(=O)CO` [CORTISONE], the IC50 entry is given as “Not Active”.

Tested on in another series: not listed separately
Kind of series: DRUGMATRIX: Calcium Channel Type L, Dihydropyridine radioligand binding (ligand: [3H] Nitrendipine). Type of series: cell membranes, Rattus norvegicus, Wistar, Cerebral cortex, Membrane. Conditions: Not Active = under 50% inhibition at 10 µM.
For `CC(=O)[C@@]1(O)CC[C@H]2[C@@H]3C[C@H](C)C4=CC(=O)C=C[C@]4(C)[C@@]3(F)[C@@H](O)C[C@@]21C` [FLUOROMETHOLONE], the IC50 result was “Not Active” and the Ki entry is “Not Active”.

Regarding `C[C@]12CCC(=O)C=C1CC[C@@H]1[C@@H]2C(=O)C[C@@]2(C)[C@H]1CC[C@]2(O)C(=O)CO` [CORTISONE], the IC50 entry is given as “Not Active” and the Ki result is listed as “Not Active”.

For the next series, the target named is T4, Alpha-2C adrenergic receptor (Homo sapiens, UniProt P18825).
T4 sequence (P18825 whole entry): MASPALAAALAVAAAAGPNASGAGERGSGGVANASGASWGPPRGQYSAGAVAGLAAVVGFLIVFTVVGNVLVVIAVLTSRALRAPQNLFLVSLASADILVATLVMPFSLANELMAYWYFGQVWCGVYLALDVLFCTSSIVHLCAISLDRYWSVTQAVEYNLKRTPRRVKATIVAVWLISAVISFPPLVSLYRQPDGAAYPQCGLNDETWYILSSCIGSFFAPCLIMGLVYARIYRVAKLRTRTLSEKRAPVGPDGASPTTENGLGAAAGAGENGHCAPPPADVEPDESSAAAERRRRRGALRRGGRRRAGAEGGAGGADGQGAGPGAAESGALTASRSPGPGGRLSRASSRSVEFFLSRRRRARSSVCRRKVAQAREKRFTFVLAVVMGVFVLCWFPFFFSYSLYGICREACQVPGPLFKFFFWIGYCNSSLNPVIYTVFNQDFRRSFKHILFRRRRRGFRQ
Kind of series: DRUGMATRIX: Adrenergic Alpha-2C radioligand binding (ligand: [3H] MK-912). Type of series: cell membranes, Sf9, Membrane. Conditions: sf9.
Consider `CC(=O)[C@@]1(O)CC[C@H]2[C@@H]3C[C@H](C)C4=CC(=O)C=C[C@]4(C)[C@@]3(F)[C@@H](O)C[C@@]21C` [FLUOROMETHOLONE], for which the IC50 result is “Not Active”.

Turning to `C[C@]12CCC(=O)C=C1CC[C@@H]1[C@@H]2C(=O)C[C@@]2(C)[C@H]1CC[C@]2(O)C(=O)CO` [CORTISONE], the IC50 result is “Not Active”.

The target of a further series is Kappa-type opioid receptor (Homo sapiens, UniProt P41145). The experiment in a line: DRUGMATRIX: Opiate kappa (OP2, KOP) radioligand binding (ligand: [3H] Diprenorphine). Conditions: hek293; Not Active = under 50% inhibition at 10 µM. The format is cell membranes, HEK293, Membrane.
Sequence of Kappa-type opioid receptor (P41145 whole entry): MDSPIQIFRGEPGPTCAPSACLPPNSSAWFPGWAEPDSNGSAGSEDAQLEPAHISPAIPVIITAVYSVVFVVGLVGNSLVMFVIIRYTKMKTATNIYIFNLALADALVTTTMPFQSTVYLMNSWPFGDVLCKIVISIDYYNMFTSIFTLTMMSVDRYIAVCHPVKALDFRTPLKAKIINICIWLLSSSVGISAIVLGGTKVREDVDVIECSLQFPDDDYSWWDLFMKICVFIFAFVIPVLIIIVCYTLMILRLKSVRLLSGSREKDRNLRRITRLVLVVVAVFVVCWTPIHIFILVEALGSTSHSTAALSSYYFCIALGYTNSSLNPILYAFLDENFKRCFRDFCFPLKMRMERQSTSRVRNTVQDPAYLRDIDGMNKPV
With `CC(=O)[C@@]1(O)CC[C@H]2[C@@H]3C[C@H](C)C4=CC(=O)C=C[C@]4(C)[C@@]3(F)[C@@H](O)C[C@@]21C` [FLUOROMETHOLONE], the IC50 entry is “Not Active”.

As to `C[C@]12CCC(=O)C=C1CC[C@@H]1[C@@H]2C(=O)C[C@@]2(C)[C@H]1CC[C@]2(O)C(=O)CO` [CORTISONE], the IC50 result is “Not Active”.

Tested on in the next series: not listed separately
The experiment in a line: DRUGMATRIX: Phosphodiesterase PDE3 enzyme inhibition (substrate: [3H]cAMP + cAMP). Type of series: tissue-based, Homo sapiens. Conditions: platelet; Not Active = under 50% inhibition at 10 µM.
Take `CC(=O)[C@@]1(O)CC[C@H]2[C@@H]3C[C@H](C)C4=CC(=O)C=C[C@]4(C)[C@@]3(F)[C@@H](O)C[C@@]21C` [FLUOROMETHOLONE]: the IC50 entry was “Not Active” and the Ki entry is “Not Active”.

With `C[C@]12CCC(=O)C=C1CC[C@@H]1[C@@H]2C(=O)C[C@@]2(C)[C@H]1CC[C@]2(O)C(=O)CO` [CORTISONE], the IC50 result is on record as “Not Active” and the Ki entry is given as “Not Active”.

The next series addresses Cannabinoid receptor 1 (Homo sapiens, UniProt P21554). Type of series: cell membranes, Membrane. Conditions: chem-1.
With `CC(=O)[C@@]1(O)CC[C@H]2[C@@H]3C[C@H](C)C4=CC(=O)C=C[C@]4(C)[C@@]3(F)[C@@H](O)C[C@@]21C` [FLUOROMETHOLONE], the IC50 result was “Not Active”.

As to `C[C@]12CCC(=O)C=C1CC[C@@H]1[C@@H]2C(=O)C[C@@]2(C)[C@H]1CC[C@]2(O)C(=O)CO` [CORTISONE], the IC50 result is recorded as “Not Active”.
